Patent US7479506B2, “Agent or method for treating severe aphasia in cerebrovascular accident chronic stage” (priority 2003, dated 2009)

Legend:
[1] = Acute toxicity; conditions: in vivo
Description: Acute toxicity of the compound represented by formula (I) was examined and it has been confirmed that this is a compound having high safety.

[2] = 60 g/day for gait disturbance of cerebellar degeneration; Movement Disorder, 2003, 18, pp. 457-459; cited from earlier work
[3] = system: aphasia after cerebrovascular accidents; conditions: acute phase after cerebrovascular accidents, combination use of speech therapy; cited from earlier work

NC(=O)CN1CCCC1=O [piracetam, 2-oxo-1-pyrrolidineacetamide]
acute toxicity [1]: high safety | safety [2]: no problem on its safety | therapeutic effect on aphasia [3]: therapeutic effect of piracetam is found
